We go through 18 molecules from US9181223B2, “2-aminopyrimidin-6-ones and analogs exhibiting anti-cancer and anti-proliferative activities” (Deciphera Pharmaceuticals, LLC, priority 2013, dated 2015).

Read-outs that look alike come from different tables or passages of the source.

The test system of one test is osteoclast precursors. As to the kind of experiment: Osteoclast tartrate-resistant acid phosphatase assay. The class given is cell-based. Conditions: tartrate-resistant acid phosphatase activity, RANKL and M-CSF, 7-14 days. On the procedure:
Osteoclast Tartrate-Resistant Acid Phosphatase Assay
A serial dilution of test compound was dispensed into a 384-well black clear bottom plate (Nalge Nunc International, Rochester, N.Y.). Compound was diluted by the addition of DMEM media supplemented with 10% characterized fetal bovine serum (Invitrogen, Carlsbad, Calif.). Diluted compound was transferred to a 384-well black clear bottom plate. Two-thousand five hundred osteoclast precursors (Lonza, Walkersville, Md.) were added per well in growth media containing Receptor Activator of Nuclear Factor Kappa-beta ligand (RANKL) and M-CSF (R&D Systems, Minneapolis, Minn.). Plates were incubated for 7-14 days at 37 degrees Celsius, 5% CO2, and 95% humidity to allow differentiation of osteoclast precursors. At the end of the incubation period, 10 μL of supernatant from each well was transferred to a clear 384-well plate. Tartrate-resistant acid phosphatase activity in the supernatant samples was determined using an acid phosphatase assay kit (Sigma, St. Louis, Mo.). Absorbance was measured at 550 nm using a plate reader. Data was analyzed using Prism software (Graphpad, San Diego, Calif.) to calculate IC50 values.

The target of test [1] is T1, unphosphorylated PDGFRβ kinase (uPDGFRβ, Seq. ID No. 3) (Homo sapiens, UniProt P09619).
T1 construct: purchased DeCode
T1 sequence (P09619 557-1106): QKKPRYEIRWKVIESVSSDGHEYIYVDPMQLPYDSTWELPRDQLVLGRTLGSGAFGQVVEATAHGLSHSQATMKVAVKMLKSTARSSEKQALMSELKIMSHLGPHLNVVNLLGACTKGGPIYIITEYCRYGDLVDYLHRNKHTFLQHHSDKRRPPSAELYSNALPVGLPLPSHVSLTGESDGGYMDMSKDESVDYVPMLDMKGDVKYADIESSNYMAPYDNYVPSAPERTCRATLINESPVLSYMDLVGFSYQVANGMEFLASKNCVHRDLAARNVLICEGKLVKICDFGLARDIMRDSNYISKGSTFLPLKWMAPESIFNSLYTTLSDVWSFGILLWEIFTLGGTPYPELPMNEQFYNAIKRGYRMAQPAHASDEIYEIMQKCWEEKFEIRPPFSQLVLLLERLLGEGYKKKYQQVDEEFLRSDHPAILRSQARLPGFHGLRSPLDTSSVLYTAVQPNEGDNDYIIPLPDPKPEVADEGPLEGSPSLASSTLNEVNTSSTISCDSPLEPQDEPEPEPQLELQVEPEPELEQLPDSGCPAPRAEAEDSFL
Put plainly: uPDGFRβ kinase assay (ADP production coupled to pyruvate kinase/lactate dehydrogenase). It counts as biochemical. The conditions noted are these: enzymatic assay, ATP 500 μM. On the procedure:
Unphosphorylated […]β) Kinase (Seq. ID No. 3) Assay Activity of unphosphorylated PDGFRβ kinase ([…] No. 3) was determined by following the production of ADP from the kinase reaction with ATP and poly E4Y as substrates through coupling with the pyruvate kinase/lactate dehydrogenase system (e.g., Schindler et al. Science (2000) 289: 1938-1942). In this assay, the oxidation of NADH (thus the decrease at A340 nm) was continuously monitored spectrophometrically. The reaction mixture (100 μL) contained PDGFRβ (DeCode, 15.7 nM), polyE4Y (2.5 mg/mL), MgCl2 (10 mM), pyruvate kinase (4 units), lactate dehydrogenase (0.7 units), phosphoenol pyruvate (1 mM) and NADH (0.28 mM) and ATP (500 μM) in a 90 mM Tris buffer containing 0.2% octyl-glucoside and 1% DMSO, at pH 7.5. The inhibition reaction was started by mixing serial diluted test compound with the above reaction mixture. The absorption at 340 nm was monitored continuously for 4 h at 30° C. on a Polarstar Optima or Synergy 2 plate reader. The reaction rate was calculated using the 1.5 to 2.5 h time frame. Percent inhibition was obtained by comparison of reaction rate with that of a control (i.e. with no test compound). IC50 values were calculated from a series of percent inhibition values determined at a range of inhibitor concentrations using software routines as implemented in the GraphPad Prism software package.

The target in test [2] is T2, unphosphorylated c-KIT kinase (uKIT, Seq. ID no. 2) (Homo sapiens, UniProt P10721).
T2 construct: uKit with N-terminal GST fusion used for screening
T2 sequence (P10721 with tags, fused parts or gaps): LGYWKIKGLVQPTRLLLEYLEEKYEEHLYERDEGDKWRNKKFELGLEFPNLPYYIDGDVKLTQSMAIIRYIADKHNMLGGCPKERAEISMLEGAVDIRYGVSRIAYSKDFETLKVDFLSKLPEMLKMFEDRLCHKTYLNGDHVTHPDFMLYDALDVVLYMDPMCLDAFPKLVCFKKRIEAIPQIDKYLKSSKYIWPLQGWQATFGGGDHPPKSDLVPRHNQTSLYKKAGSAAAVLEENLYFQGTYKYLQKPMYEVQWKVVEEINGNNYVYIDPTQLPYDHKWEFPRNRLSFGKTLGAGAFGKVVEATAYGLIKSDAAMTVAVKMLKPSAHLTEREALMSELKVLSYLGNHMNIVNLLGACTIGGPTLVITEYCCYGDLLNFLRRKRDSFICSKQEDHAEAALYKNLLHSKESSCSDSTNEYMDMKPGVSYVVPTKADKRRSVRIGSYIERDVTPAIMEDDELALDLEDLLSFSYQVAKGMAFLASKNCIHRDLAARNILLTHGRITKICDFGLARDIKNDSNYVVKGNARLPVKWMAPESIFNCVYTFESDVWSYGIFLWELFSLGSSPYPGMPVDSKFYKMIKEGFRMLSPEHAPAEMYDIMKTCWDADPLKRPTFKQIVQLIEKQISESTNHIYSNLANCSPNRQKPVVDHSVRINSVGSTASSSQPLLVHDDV
Put plainly: uKit kinase assay (ADP production coupled to pyruvate kinase/lactate dehydrogenase). The class given is biochemical. The conditions noted are these: read-out: uKIT. As to the method: In this assay, the oxidation of NADH (thus the decrease at A340 nm) was continuously monitored spectrophometrically. […] The inhibition reaction was started by mixing serial diluted test compound with the above reaction mixture. The absorption at 340 nm was monitored continuously for 4 hours at 30° C. on Synergy 2 plate reader (BioTech).

With `CCNc1ncc(-c2ccc(Oc3ccnc(-c4cnn(C)c4)c3)cn2)c(=O)[nH]1` [Example 8, 2-(ethylamino)-5-(5-((2-(1-methyl-1H-pyrazol-4-yl)pyridin-4-yl)oxy)pyridin-2-yl)pyrimidin-4(3H)-one], the IC50 in the test on osteoclast precursors was 100 to 1000 nM; in test [1], above 1000 nM; in test [2] (enzymatic assay, ATP 2000 μM), 100 to 1000 nM.

Regarding `Cc1nc(-c2cnc(N(C)C)[nH]c2=O)ccc1Oc1ccnc(-c2cnn(C)c2)c1` [Example 2, 2-(dimethylamino)-5-(6-methyl-5-((2-(1-methyl-1H-pyrazol-4-yl)pyridin-4-yl)oxy)pyridin-2-yl)pyrimidin-4(3H)-one], the IC50 is 10 to 100 nM in the test with osteoclast precursors; above 1000 nM in test [1]; above 1000 nM in test [2] (enzymatic assay, ATP 2000 μM).

In the case of `Cc1nc(-c2cnc(N3CCOCC3)[nH]c2=O)ccc1Oc1ccnc(-c2cnn(C)c2)c1` [Example 12, 5-(6-methyl-5-((2-(1-methyl-1H-pyrazol-4-yl)pyridin-4-yl)oxy)pyridin-2-yl)-2-morpholinopyrimidin-4(3H)-one], the IC50 was 10 to 100 nM in the test with osteoclast precursors; above 1000 nM in test [1]; above 1000 nM in test [2] (enzymatic assay, ATP 2000 μM).

On to `Cc1nc(-c2cnc(NC3CCOCC3)[nH]c2=O)ccc1Oc1ccnc(-c2cnn(C)c2)c1` [Example 27, 5-(6-methyl-5-((2-(1-methyl-1H-pyrazol-4-yl)pyridin-4-yl)oxy)pyridin-2-yl)-2-((tetrahydro-2H-pyran-4-yl)amino)pyrimidin-4(3H)-one], for which the IC50 in the test with osteoclast precursors was 10 to 100 nM; in test [1], above 1000 nM; in test [2] (enzymatic assay, ATP 2000 μM) it was above 1000 nM.

`CCNc1ncc(-c2ccc(Oc3ccnc(-n4cnc(C)c4)c3)c(C)n2)c(=O)[nH]1` [Example 5, 2-(ethylamino)-5-(6-methyl-5-((2-(4-methyl-1H-imidazol-1-yl)pyridin-4-yl)oxy)pyridin-2-yl)pyrimidin-4(3H)-one]: the IC50 in the test with osteoclast precursors is 100 to 1000 nM; in test [1] it was above 1000 nM; in test [2] (enzymatic assay, ATP 2000 μM), above 1000 nM.

With `Cc1nc(-c2cnc(NC3CC3)[nH]c2=O)ccc1Oc1ccnc(-c2cnn(C)c2)c1` [Example 14, 2-(cyclopropylamino)-5-(6-methyl-5-((2-(1-methyl-1H-pyrazol-4-yl)pyridin-4-yl)oxy)pyridin-2-yl)pyrimidin-4(3H)-one], the IC50 with osteoclast precursors was 10 to 100 nM; in test [1] it was above 1000 nM; in test [2] (enzymatic assay, ATP 2000 μM), above 1000 nM.

Regarding `CCNc1ncc(-c2ccc(Oc3ccnc(-c4cnn(C)c4)c3)c(C)n2)c(=O)[nH]1` [Example 1, 2-(ethylamino)-5-(6-methyl-5-((2-(1-methyl-1H-pyrazol-4-yl)pyridin-4-yl)oxy)pyridin-2-yl)pyrimidin-4(3H)-one], the IC50 in the test on osteoclast precursors is 10 to 100 nM; in test [1], above 1000 nM; in test [2] (enzymatic assay, ATP 2000 μM) it was above 1000 nM.

As for `Cc1cc(-c2cnc(N3CCCC3)[nH]c2=O)ncc1Oc1ccnc(-c2cnn(C)c2)c1` [Example 20, 5-(4-methyl-5-((2-(1-methyl-1H-pyrazol-4-yl)pyridin-4-yl)oxy)pyridin-2-yl)-2-(pyrrolidin-1-yl)pyrimidin-4(3H)-one], the IC50 in the test on osteoclast precursors is below 10 nM; in test [1], 100 to 1000 nM; in test [2] (enzymatic assay, ATP 2000 μM) it was 100 to 1000 nM.

As to `Cc1nc(-c2cnc(N3CCCCC3)[nH]c2=O)ccc1Oc1ccnc(-c2cnn(C)c2)c1` [Example 13, 5-(6-methyl-5-((2-(1-methyl-1H-pyrazol-4-yl)pyridin-4-yl)oxy)pyridin-2-yl)-2-(piperidin-1-yl)pyrimidin-4(3H)-one], the IC50 is 10 to 100 nM in the test on osteoclast precursors; above 1000 nM in test [1]; above 1000 nM in test [2] (enzymatic assay, ATP 2000 μM).

Turning to `Cc1nc(-c2cnc(N3CCCC3)[nH]c2=O)ccc1Oc1ccnc(-c2cnn(C)c2)c1` [Example 9, 5-(6-methyl-5-((2-(1-methyl-1H-pyrazol-4-yl)pyridin-4-yl)oxy)pyridin-2-yl)-2-(pyrrolidin-1-yl)pyrimidin-4(3H)-one], the results for the IC50 (in the test on osteoclast precursors; in test [1]; in test [2]) were 10 to 100 nM, above 1000 nM and above 1000 nM, respectively.

In the case of `CNc1ncc(-c2ccc(Oc3ccnc(-c4cnn(C)c4)c3)c(C)n2)c(=O)[nH]1` [Example 7, 5-(6-methyl-5-((2-(1-methyl-1H-pyrazol-4-yl)pyridin-4-yl)oxy)pyridin-2-yl)-2-(methylamino)pyrimidin-4(3H)-one], the IC50 with osteoclast precursors was 100 to 1000 nM; in test [1], above 1000 nM; in test [2] (enzymatic assay, ATP 2000 μM), 100 to 1000 nM.

Turning to `CCNc1ncc(-c2ccc(Oc3ccnc(-c4ccc(C)nc4)c3)c(C)n2)c(=O)[nH]1` [Example 4, 2-(ethylamino)-5-(6-methyl-5-((6′-methyl-[2,3′-bipyridin]-4-yl)oxy)pyridin-2-yl)pyrimidin-4(3H)-one], the IC50 was 100 to 1000 nM with osteoclast precursors; above 1000 nM in test [1]; above 1000 nM in test [2] (enzymatic assay, ATP 2000 μM).

Consider `Cc1nc(-c2cnc(NC3CC3)n(C)c2=O)ccc1Oc1ccnc(-c2cnn(C)c2)c1` [Example 17, 2-(cyclopropylamino)-3-methyl-5-(6-methyl-5-((2-(1-methyl-1H-pyrazol-4-yl)pyridin-4-yl)oxy)pyridin-2-yl)pyrimidin-4(3H)-one], for which the IC50 in the test with osteoclast precursors was below 10 nM; in test [1] it was above 1000 nM; in test [2] (enzymatic assay, ATP 2000 μM), above 1000 nM.

For the molecule `CNC(=O)c1cc(Oc2ccc(-c3cnc(NC(C)C)[nH]c3=O)nc2)ccn1` [Example 11, 4-((6-(2-(isopropylamino)-6-oxo-1,6-dihydropyrimidin-5-yl)pyridin-3-yl)oxy)-N-methylpicolinamide], the IC50 in the test on osteoclast precursors is 10 to 100 nM; in test [1], above 1000 nM; in test [2] (enzymatic assay, ATP 2000 μM), above 1000 nM.

Regarding `Cc1nc(-c2cnc(NC(C)C)[nH]c2=O)ccc1Oc1ccnc(-c2cnn(C)c2)c1` [Example 3, 2-(isopropylamino)-5-(6-methyl-5-((2-(1-methyl-1H-pyrazol-4-yl)pyridin-4-yl)oxy)pyridin-2-yl)pyrimidin-4(3H)-one], the IC50 was 10 to 100 nM with osteoclast precursors; above 1000 nM in test [1]; 100 to 1000 nM in test [2] (enzymatic assay, ATP 2000 μM).

For `CCn1cc(-c2cc(Oc3ccc(-c4cnc(NC(C)C)[nH]c4=O)nc3C)ccn2)cn1` [Example 21, 5-(5-((2-(1-ethyl-1H-pyrazol-4-yl)pyridin-4-yl)oxy)-6-methylpyridin-2-yl)-2-(isopropylamino)pyrimidin-4(3H)-one], the IC50 with osteoclast precursors was 10 to 100 nM; in test [1], above 1000 nM; in test [2] (enzymatic assay, ATP 2000 μM) it was above 1000 nM.

For the molecule `CC(=O)Nc1cc(Oc2ccc(-c3cnc(NC(C)C)[nH]c3=O)nc2C)ccn1` [Example 19, N-(4-((6-(2-(isopropylamino)-6-oxo-1,6-dihydropyrimidin-5-yl)-2-methylpyridin-3-yl)oxy)pyridin-2-yl)acetamide], the IC50 was 10 to 100 nM in the test on osteoclast precursors; 100 to 1000 nM in test [1]; 100 to 1000 nM in test [2] (enzymatic assay, ATP 2000 μM).

For `Cc1nc(-c2cnc(NC3CCCC3)[nH]c2=O)ccc1Oc1ccnc(-c2cnn(C)c2)c1` [Example 15, 2-(cyclopentylamino)-5-(6-methyl-5-((2-(1-methyl-1H-pyrazol-4-yl)pyridin-4-yl)oxy)pyridin-2-yl)pyrimidin-4(3H)-one], the IC50 was below 10 nM in the test with osteoclast precursors; 100 to 1000 nM in test [1]; 100 to 1000 nM in test [2] (enzymatic assay, ATP 2000 μM).
